Laboratory results reported in PMC10709440, “High-throughput ligand profile characterization in novel cell lines expressing seven heterologous insect olfactory receptors for the detection of volatile plant biomarkers” (Scientific Reports, 2023).
Read-outs that look alike come from different tables or passages of the source.

Legend:
Drosophila OR98a = molecular target: T1, Drosophila OR98a (Drosophila melanogaster, UniProt Q9VAZ3); test: Calcium ion fluorescence (GCaMP6) assay, OR98a stable HEK293 cell line; type: cell-based; conditions: for Average response / OR98a response (VUAA1-normalized) at 1 μM / OR98a response (VUAA1-normalized) at 10 μM / OR98a response (VUAA1-normalized) at 100 μM: OR98a cell line; for Average response: average of biological replicates, fraction of VUAA1 response
T1 construct: expressed in transfected cells
T1 sequence (Q9VAZ3 1-397): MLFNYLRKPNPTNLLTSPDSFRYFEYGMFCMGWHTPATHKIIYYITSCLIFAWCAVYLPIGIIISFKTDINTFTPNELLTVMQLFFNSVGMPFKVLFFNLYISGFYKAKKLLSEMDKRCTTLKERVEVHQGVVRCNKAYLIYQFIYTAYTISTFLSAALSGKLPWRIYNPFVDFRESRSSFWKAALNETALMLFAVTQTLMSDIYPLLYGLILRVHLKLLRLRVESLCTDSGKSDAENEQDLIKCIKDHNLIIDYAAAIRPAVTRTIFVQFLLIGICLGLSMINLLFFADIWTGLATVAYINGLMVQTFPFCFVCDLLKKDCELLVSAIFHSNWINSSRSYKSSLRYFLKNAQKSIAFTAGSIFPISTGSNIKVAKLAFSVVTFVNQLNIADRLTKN
T1 sequence (Q9VNB5 1-486 partner): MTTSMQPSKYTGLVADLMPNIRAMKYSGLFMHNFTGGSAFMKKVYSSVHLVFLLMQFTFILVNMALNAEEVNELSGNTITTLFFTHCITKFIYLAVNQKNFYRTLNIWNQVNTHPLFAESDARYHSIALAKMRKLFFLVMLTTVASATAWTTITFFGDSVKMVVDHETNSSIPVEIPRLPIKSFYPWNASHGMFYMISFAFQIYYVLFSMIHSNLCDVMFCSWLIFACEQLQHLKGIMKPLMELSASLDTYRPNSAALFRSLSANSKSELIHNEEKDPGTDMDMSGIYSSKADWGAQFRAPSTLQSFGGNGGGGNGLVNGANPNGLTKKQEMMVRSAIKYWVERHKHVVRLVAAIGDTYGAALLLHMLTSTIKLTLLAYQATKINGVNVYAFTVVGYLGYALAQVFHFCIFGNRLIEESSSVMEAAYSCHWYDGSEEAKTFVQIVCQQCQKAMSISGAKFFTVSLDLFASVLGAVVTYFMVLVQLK
Method in brief: (§1)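 Responses are VUAA1-normalized ΔF: each VOC-evoked calcium signal, (FMAX−F0)/F0 over 30 s after injection, divided by the same line's mean 50 µM VUAA1 response. Cells were doxycycline-induced HEK293 with GCaMP6 and the cognate Drosophila OR, in HEPES buffer pH 7.3; ligands tested 0.01–100 μM.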

Drosophila OR13a = molecular target: T2, Drosophila OR13a (Drosophila melanogaster, UniProt Q9VXL0); test: Calcium ion fluorescence (GCaMP6) assay, OR13a stable HEK293 cell line; type: cell-based; conditions: for OR13a response (VUAA1-normalized) at 1 μM / OR13a response (VUAA1-normalized) at 10 μM / OR13a response (VUAA1-normalized) at 100 μM: OR13a cell line
T2 construct: expressed in transfected cells
T2 sequence (Q9VXL0 1-418): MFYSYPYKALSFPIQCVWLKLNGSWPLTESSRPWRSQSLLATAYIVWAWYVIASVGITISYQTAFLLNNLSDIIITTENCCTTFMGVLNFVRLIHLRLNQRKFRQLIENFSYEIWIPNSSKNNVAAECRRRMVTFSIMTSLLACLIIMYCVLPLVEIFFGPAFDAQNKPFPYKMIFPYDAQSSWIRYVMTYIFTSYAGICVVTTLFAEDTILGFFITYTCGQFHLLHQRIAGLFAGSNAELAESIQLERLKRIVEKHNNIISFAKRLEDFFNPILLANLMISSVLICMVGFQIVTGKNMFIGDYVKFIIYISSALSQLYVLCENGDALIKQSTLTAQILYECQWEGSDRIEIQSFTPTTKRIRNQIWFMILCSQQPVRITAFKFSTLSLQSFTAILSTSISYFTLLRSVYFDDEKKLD
T2 sequence (Q9VNB5 1-486 partner): T1 sequence (Q9VNB5 1-486 partner)
Method in brief: as §1

[1] = HEK293, read-out: Average response
[2] = HEK293, read-out: OR98a response (VUAA1-normalized response)
[3] = concentration 1, normalized fluorescence change, values below 0.05 threshold given as 0
[4] = concentration 10, normalized fluorescence change, values below 0.05 threshold given as 0
[5] = concentration 100, normalized fluorescence change, values below 0.05 threshold given as 0
[6] = HEK293, read-out: OR13a Average response (VUAA1-normalized), 1 μM VOC, 50 μM VUAA1 = 1, responses not exceeding 0.05 considered 0
[7] = HEK293, read-out: OR13a Average response (VUAA1-normalized), 10 μM VOC, 50 μM VUAA1 = 1, responses not exceeding 0.05 considered 0
[8] = HEK293, read-out: OR13a Average response (VUAA1-normalized), 100 μM VOC, 50 μM VUAA1 = 1, responses not exceeding 0.05 considered 0
[9] = HEK293, read-out: OR13a response (VUAA1-normalized response), VOC concentration 1 μM
[10] = HEK293, read-out: OR13a response (VUAA1-normalized response), VOC concentration 10 μM
[11] = HEK293, read-out: OR13a response (VUAA1-normalized response), VOC concentration 100 μM
[12] = 1 μM VOC, 50 μM VUAA1 = 1, responses not exceeding 0.05 considered 0
[13] = 10 μM VOC, 50 μM VUAA1 = 1, responses not exceeding 0.05 considered 0
[14] = 100 μM VOC, 50 μM VUAA1 = 1, responses not exceeding 0.05 considered 0
[15] = ligand concentration 1 (unit not given), 0.05 threshold, values below shown as 0
[16] = ligand concentration 10 (unit not given), 0.05 threshold, values below shown as 0
[17] = ligand concentration 100 (unit not given), 0.05 threshold, values below shown as 0
[18] = ligand concentration 1 (unit not given), threshold 0.05, below shown as 0
[19] = ligand concentration 10 (unit not given), threshold 0.05, below shown as 0
[20] = ligand concentration 100 (unit not given), threshold 0.05, below shown as 0

| SMILES | activation at 1 µM (Drosophila OR98a; [1]) | activation at 10 µM (Drosophila OR98a; [1]) | activation at 100 µM (Drosophila OR98a; [1]) | activation at 1 µM (Drosophila OR98a; [2]) | activation at 10 µM (Drosophila OR98a; [2]) | activation at 100 µM (Drosophila OR98a; [2]) | DF norm AVERAGE OR98a (Drosophila OR98a; [3]) | DF norm AVERAGE OR98a (Drosophila OR98a; [4]) | DF norm AVERAGE OR98a (Drosophila OR98a; [5]) | activation at 1 µM (Drosophila OR13a; [6]) | activation at 10 µM (Drosophila OR13a; [7]) | activation at 100 µM (Drosophila OR13a; [8]) | activation at 1 µM (Drosophila OR13a; [9]) | activation at 10 µM (Drosophila OR13a; [10]) | activation at 100 µM (Drosophila OR13a; [11]) | DF norm AVERAGE OR13a (Drosophila OR13a; [3]) | DF norm AVERAGE OR13a (Drosophila OR13a; [4]) | DF norm AVERAGE OR13a (Drosophila OR13a; [5]) | further results |
| --- | --- | --- | --- | --- | --- | --- | --- | --- | --- | --- | --- | --- | --- | --- | --- | --- | --- | --- | --- |
| Cc1ccc(C)c(C)c1 [1,2,4-trimethylbenzene] | 0% | 13% | 5% | 0% | 13% | 5% | 0 | 0.1254 | 0.05229 | 0% | 0% | 0% | 0% | 0% | 0% | 0 | 0 | 0 |  |
| C=C(C)C1CCC2(C)OC2C1 (single isomer, unassigned; (+)) [(+)-limonene oxide] |  |  |  |  |  |  | 0 | 0 | 0 |  |  |  |  |  |  | 0 | 0 | 0 | OR98a response (VUAA1-normalized response) (Drosophila OR98a; VOC concentration 1 μM): 0.00; OR98a response (VUAA1-normalized response) (Drosophila OR98a; VOC concentration 10 μM): 0.00; OR98a response (VUAA1-normalized response) (Drosophila OR98a; VOC concentration 100 μM): 0.00; Average response (Drosophila OR98a; cc. 1 µM): 0.00; Average response (Drosophila OR98a; cc. 10 µM): 0.00; Average response (Drosophila OR98a; cc. 100 µM): 0.00; OR13a Average response (VUAA1-normalized) (Drosophila OR13a; [12]): 0.00; OR13a Average response (VUAA1-normalized) (Drosophila OR13a; [13]): 0.00; OR13a Average response (VUAA1-normalized) (Drosophila OR13a; [14]): 0.00; OR13a response (VUAA1-normalized response) (Drosophila OR13a; VOC concentration 1 μM): 0.00; OR13a response (VUAA1-normalized response) (Drosophila OR13a; VOC concentration 10 μM): 0.00; OR13a response (VUAA1-normalized response) (Drosophila OR13a; VOC concentration 100 μM): 0.00 |
| CC/C=C\CCO [Z-3-hexenol] |  |  |  |  |  |  |  |  |  |  |  |  |  |  |  |  |  |  | OR98a response (VUAA1-normalized) at 1 μM (Drosophila OR98a; VOC concentration 1 μM): 0.00; OR98a response (VUAA1-normalized) at 10 μM (Drosophila OR98a; VOC concentration 10 μM): 0.17; OR98a response (VUAA1-normalized) at 100 μM (Drosophila OR98a; VOC concentration 100 μM): 0.11; OR13a response (VUAA1-normalized) at 1 μM (Drosophila OR13a; VOC concentration 1 μM): 0.00; OR13a response (VUAA1-normalized) at 10 μM (Drosophila OR13a; VOC concentration 10 μM): 0.06; OR13a response (VUAA1-normalized) at 100 μM (Drosophila OR13a; VOC concentration 100 μM): 0.00 |
| CCCCCCCCCCC [undecane] | 2.26% | 0% | 8% |  |  |  |  |  |  | 0% | 0% | 0% |  |  |  |  |  |  | OR98a response (VUAA1-normalized) at 1 μM (Drosophila OR98a; VOC concentration 1 μM): 0.00; OR98a response (VUAA1-normalized) at 10 μM (Drosophila OR98a; VOC concentration 10 μM): 0.00; OR98a response (VUAA1-normalized) at 100 μM (Drosophila OR98a; VOC concentration 100 μM): 0.08; DF norm AVERAGE OR98a (Drosophila OR98a; [15]): 0; DF norm AVERAGE OR98a (Drosophila OR98a; [16]): 0; DF norm AVERAGE OR98a (Drosophila OR98a; [17]): 0.08228; OR13a response (VUAA1-normalized) at 1 μM (Drosophila OR13a; VOC concentration 1 μM): 0.00; OR13a response (VUAA1-normalized) at 10 μM (Drosophila OR13a; VOC concentration 10 μM): 0.00; OR13a response (VUAA1-normalized) at 100 μM (Drosophila OR13a; VOC concentration 100 μM): 0.00; DF norm AVERAGE OR13a (Drosophila OR13a; [15]): 0; DF norm AVERAGE OR13a (Drosophila OR13a; [16]): 0; DF norm AVERAGE OR13a (Drosophila OR13a; [17]): 0 |
| C=C(C)[C@H]1CC=C(C)CC1 [limonene] |  |  |  |  |  |  |  |  |  |  |  |  |  |  |  |  |  |  | OR98a response (VUAA1-normalized response) (Drosophila OR98a; VOC concentration 1 μM): 0.00; OR98a response (VUAA1-normalized response) (Drosophila OR98a; VOC concentration 10 μM): 0.00; OR98a response (VUAA1-normalized response) (Drosophila OR98a; VOC concentration 100 μM): 0.00; Average response (Drosophila OR98a; cc. 1 µM): 0.00; Average response (Drosophila OR98a; cc. 10 µM): 0.02; Average response (Drosophila OR98a; cc. 100 µM): 0.0268; DF norm AVERAGE OR98a (Drosophila OR98a; [18]): 0; DF norm AVERAGE OR98a (Drosophila OR98a; [19]): 0; DF norm AVERAGE OR98a (Drosophila OR98a; [20]): 0; OR13a Average response (VUAA1-normalized) (Drosophila OR13a; [12]): 0.00; OR13a Average response (VUAA1-normalized) (Drosophila OR13a; [13]): 0.00; OR13a Average response (VUAA1-normalized) (Drosophila OR13a; [14]): 0.00; OR13a response (VUAA1-normalized response) (Drosophila OR13a; VOC concentration 1 μM): 0.00; OR13a response (VUAA1-normalized response) (Drosophila OR13a; VOC concentration 10 μM): 0.00; OR13a response (VUAA1-normalized response) (Drosophila OR13a; VOC concentration 100 μM): 0.00; DF norm AVERAGE OR13a (Drosophila OR13a; [18]): 0; DF norm AVERAGE OR13a (Drosophila OR13a; [19]): 0; DF norm AVERAGE OR13a (Drosophila OR13a; [20]): 0 |
| CCCCCCCCCC=O [decanal] | 3% | 0% | 0% | 0% | 0% | 0% |  |  |  | 0% | 0% | 0% | 0% | 0% | 0% |  |  |  | DF norm AVERAGE OR98a (Drosophila OR98a; [18]): 0; DF norm AVERAGE OR98a (Drosophila OR98a; [19]): 0; DF norm AVERAGE OR98a (Drosophila OR98a; [20]): 0; DF norm AVERAGE OR13a (Drosophila OR13a; [18]): 0; DF norm AVERAGE OR13a (Drosophila OR13a; [19]): 0; DF norm AVERAGE OR13a (Drosophila OR13a; [20]): 0 |
| CCCCCCCO [1-heptanol] | 4% | 5% | 0% | 0% | 5% | 0% | 0 | 0.05219 | 0 | 2% | 15% | 22% | 0% | 15% | 22% | 0 | 0.145 | 0.219 |  |
